Entries after “also recorded” stand apart in the source; their conditions may differ.
Test system: M1 macrophages and M2 macrophages differentiated from mouse bone marrow cells
Experiment: Subtype identification by staining and flow cytometry of M1 and M2 macrophages differentiated from mouse bone marrow cells
Assay type: cell-based, Balb/c mouse
Details: for subtype more strongly stained: two compounds used in combination, each 1 μM
Experimental: The culture of subtypes was performed according to a protocol described in NPL 7. Specifically, bone marrow cells collected from the femur of a Balb/c mouse of 8 to 10 weeks old were dispersed to a concentration of 1×10^6/mL in an IMDM containing 20% FBS and 1% P/S, and 1×10^7 cells were seeded in a 100 mm dish. After further adding an M-CSF (manufactured by Pepro Tech) thereto to a concentration of 50 ng/mL, the cells were incubated for 3 to 4 days in the presence of 5% CO2 at 37° C., so as to differentiate macrophage precursor cells to macrophages. After exchanging the medium, the M-CSF was added to a concentration of 50 ng/mL, and the incubation was performed for further 3 to 4 days in the presence of 5% CO2 at 37° C., and then, the resulting cells were differentiated to macrophage. By adding 200 ng of interferon-γ and 1 μg of […] (both manufactured by Pepro Tech) to the IMDM containing 5% FBS and 1% P/S, the cells were differentiated to the subtype M1. Besides, by adding 100 ng of IL-4 to the IMDM containing 5% FBS and 1% P/S, the cells were differentiated to the subtype M2. After performing the incubation for further 3 days in the presence of 5% CO2 at 37° C., the resultant was rinsed with PBS, and PBS containing 0.25% trypsin and 1 mM EDTA (ethylenediaminetetraacetic acid) was used for collecting, from the dish, the macrophages having been differentiated to the subtypes M1 and M2.
Thereafter, the tube was centrifuged at 180 G for 10 minutes to remove the supernatant, a dye for identifying dead cells (aqua fluorescent reactive dye, manufactured by Invitrogen; which is hereinafter sometimes abbreviated as aqua) was added thereto, and the resultant was incubated at 4° C. for 10 minutes. Subsequently, the tube was centrifuged at 180 G for 10 minutes to remove the supernatant, cells were suspended in a FACS buffer to be analyzed by using FACSCanto (trademark) II flow cytometry apparatus manufactured by BD.
The analysis was performed on a cell population showing a low signal for the aqua, so as to analyze a cell population from which dead cells were eliminated. […] A histogram was prepared by plotting fluorescence intensity obtained in the FITC channel on the abscissa and plotting the number of cells at each fluorescence intensity on the ordinate, which is shown in FIG. 2.
Histograms were prepared by plotting fluorescence intensities obtained in the respective channels on the abscissa and plotting the numbers of cells at each fluorescence intensity on the ordinate. A difference between a fluorescence intensity (FM1) at a peak top of the histogram of the M1 macrophage and a fluorescence intensity (FM2) at a peak top of the histogram of the M2 macrophage is divided by a sum of a peak width (WM1) of the histogram of the M1 macrophage and a peak width (WM2) of the histogram of the M2 macrophage, so as to obtain a resolution R, which was used as an index of the identification ability for a subtype (see the following expression (1)). Resolution R=|FM1−FM2|/(WM1+WM2) Expression (1)

[1] = R=|FM1−FM2|/(WM1+WM2), compound 1 μM
[2] = fluorescence intensity at peak top of histogram, compound 1 μM, 37° C., 30 minutes
[3] = M1 vs M2 macrophages from mouse bone marrow cells, general formula (10) dyes (Table 8)
[4] = class based on resolution R, general formula (10) dyes (Table 8)
[5] = mouse bone marrow-derived M1 macrophages, channel listed per compound, general formula (10) dyes (Table 8)
[6] = mouse bone marrow-derived M2 macrophages, channel listed per compound, general formula (10) dyes (Table 8)
[7] = M1 vs M2 macrophages from mouse bone marrow cells, general formula (6) dyes (Table 7)
[8] = class based on resolution R, general formula (6) dyes (Table 7)
[9] = mouse bone marrow-derived M1 macrophages, channel listed per compound, general formula (6) dyes (Table 7)
[10] = mouse bone marrow-derived M2 macrophages, channel listed per compound, general formula (6) dyes (Table 7)

O=C(O)Cn1c(=O)/c(=C\c2ccc3c(c2)C2CCCC2N3c2ccc(C=C(c3ccccc3)c3ccccc3)cc2)s/c1=C1/CC(=S)N(Cc2ccccc2)C1=O (centres unmarked) [(20)]
Resolution ratio R [1]: 0.290
Peak position of M1 macrophage [2]: 4.47
Peak position of M2 macrophage [2]: 2.10
Evaluation of macrophage subtype identification (rated from resolution R): B (the compound is good in the subtype identification (namely, the resolution R is 0.15 or more and less than 0.5))

CCOC(=O)CN1C(=O)/C(=C\c2ccc3c(c2)C2CCCC2N3c2ccccc2)SC1=S (centres unmarked) [(48)]
Resolution ratio R [1]: 0.621
Peak position of M1 macrophage [2]: 65.4
Peak position of M2 macrophage [2]: 9.74
Evaluation of macrophage subtype identification (rated from resolution R): A (The compound is very good in the subtype identification (namely, the resolution R is 0.5 or more))

COc1ccc2cc(N3c4ccc(/C=C5/SC(=S)N(CCC(=O)O)C5=O)cc4C4CCCC43)ccc2c1 (centres unmarked) [(22)]
Resolution ratio R [1]: 0.389
Peak position of M1 macrophage [2]: 199
Peak position of M2 macrophage [2]: 313
Evaluation of macrophage subtype identification (rated from resolution R): B (the compound is good in the subtype identification (namely, the resolution R is 0.15 or more and less than 0.5))

CC1(C)CCN2CCC(C)(C)c3c2c1cc1cc(-c2nc4ccccc4s2)c(=O)oc31 [(138)]
Resolution ratio R [3]: 0.312
Evaluation of macrophage subtype identification [4]: B (the compound is good in the subtype identification (namely, the resolution R is 0.15 or more and less than 0.5))
Peak position of M1 macrophage [5]: 20.6
Peak position of M2 macrophage [6]: 28.0

O=C(O)CN1C(=O)/C(=C\c2ccc3c(c2)C2CCCC2N3c2ccc(C=C(c3ccccc3)c3ccccc3)cc2)SC1=S (centres unmarked) [(31)]
Resolution ratio R [1]: 0.248
Peak position of M1 macrophage [2]: 65.1
Peak position of M2 macrophage [2]: 89.0
Evaluation of macrophage subtype identification (rated from resolution R): B (the compound is good in the subtype identification (namely, the resolution R is 0.15 or more and less than 0.5))

CCOC(=O)Cn1c(=O)/c(=C\c2ccc3c(c2)C2CCCC2N3c2ccc(OC)cc2)s/c1=C1/SC(=O)N(CC)C1=O (centres unmarked) [(45)]
Resolution ratio R [1]: 0.822
Peak position of M1 macrophage [2]: 18.2
Peak position of M2 macrophage [2]: 4.84
Evaluation of macrophage subtype identification (rated from resolution R): A (The compound is very good in the subtype identification (namely, the resolution R is 0.5 or more))

CSc1ccc(N2c3ccc(/C=C4/SC(=S)N(CCC(=O)O)C4=O)cc3C3CCCC32)cc1 (centres unmarked) [(6)]
Resolution ratio R [1]: 0.504
Peak position of M1 macrophage [2]: 26.5
Peak position of M2 macrophage [2]: 50.4
Evaluation of macrophage subtype identification (rated from resolution R): A (The compound is very good in the subtype identification (namely, the resolution R is 0.5 or more))

COc1ccc(N2c3ccc(/C=C4/SC(=S)N(CC(=O)O)C4=O)cc3C3CCCC32)cc1 (centres unmarked) [(25)]
Resolution ratio R [1]: 0.346
Peak position of M1 macrophage [2]: 27.4
Peak position of M2 macrophage [2]: 18.2
Evaluation of macrophage subtype identification (rated from resolution R): B (the compound is good in the subtype identification (namely, the resolution R is 0.15 or more and less than 0.5))

CCCCCCCCN1C(=O)/C(=c2\s/c(=C/c3ccc4c(c3)C3CCCC3N4c3ccc(C=C(c4ccccc4)c4ccccc4)cc3)c(=O)n2CC(=O)O)SC1=S (centres unmarked) [(38)]
Resolution ratio R [1]: 0.724
Peak position of M1 macrophage [2]: 3.74
Peak position of M2 macrophage [2]: 1.63
Evaluation of macrophage subtype identification (rated from resolution R): A (The compound is very good in the subtype identification (namely, the resolution R is 0.5 or more))

CCN1c2ccc(/C=C/c3sc4ccccc4[n+]3CC(=O)O)cc2C2CCCC21 (centres unmarked) [(65)]
Resolution ratio R [1]: 0.236
Peak position of M1 macrophage [2]: 2.96
Peak position of M2 macrophage [2]: 4.67
Evaluation of macrophage subtype identification (rated from resolution R): B (the compound is good in the subtype identification (namely, the resolution R is 0.15 or more and less than 0.5))

CCN1C(=C/C=C/c2n(CC)c3cc(Cl)c(Cl)cc3[n+]2CC)N(CC)c2cc(Cl)c(Cl)cc21 [compound (103)]
Resolution ratio R [7]: 0.597
Evaluation of macrophage subtype identification [8]: A (The compound is very good in the subtype identification (namely, the resolution R is 0.5 or more))
Peak position of M1 macrophage [9]: 2.97
Peak position of M2 macrophage [10]: 8.23
subtype more strongly stained: the M2 macrophage shows a higher fluorescence intensity in the PE-Cy7 channel than the M1 macrophage

CCN1/C(=C\C=C\C2=[N+](CC)c3ccccc3C23CCCCC3)C2(CCCCC2)c2ccccc21 [(99)]
Resolution ratio R [7]: 0.673
Evaluation of macrophage subtype identification [8]: A (The compound is very good in the subtype identification (namely, the resolution R is 0.5 or more))
Peak position of M1 macrophage [9]: 191.14
Peak position of M2 macrophage [10]: 331.51

CN1\C(=C/C=C/C=C/C2=[N+](C)c3ccc4ccccc4c3C2(C)C)C(C)(C)c2c1ccc1ccccc21 [(92)]
Resolution ratio R [7]: 0.534
Evaluation of macrophage subtype identification [8]: A (The compound is very good in the subtype identification (namely, the resolution R is 0.5 or more))
Peak position of M1 macrophage [9]: 2.27
Peak position of M2 macrophage [10]: 3.9

COc1ccc(N2c3ccc(/C=C/C4=[N+](CCC(=O)O)c5ccc6ccccc6c5C4(C)C)cc3C3CCCC32)cc1 (centres unmarked) [(60)]
Resolution ratio R [1]: 0.621
Peak position of M1 macrophage [2]: 4.55
Peak position of M2 macrophage [2]: 7.65
Evaluation of macrophage subtype identification (rated from resolution R): A (The compound is very good in the subtype identification (namely, the resolution R is 0.5 or more))

CCN1/C(=C\C=C\c2oc3ccccc3[n+]2CC)Oc2ccccc21 [(98)]
Resolution ratio R [7]: 0.507
Evaluation of macrophage subtype identification [8]: A (The compound is very good in the subtype identification (namely, the resolution R is 0.5 or more))
Peak position of M1 macrophage [9]: 21.95
Peak position of M2 macrophage [10]: 61.59

CCN(CC)c1ccc2cc(-c3nc4ccccc4n3C)c(=O)oc2c1 [(119)]
Resolution ratio R [3]: 0.273
Evaluation of macrophage subtype identification [4]: B (the compound is good in the subtype identification (namely, the resolution R is 0.15 or more and less than 0.5))
Peak position of M1 macrophage [5]: 2.60
Peak position of M2 macrophage [6]: 3.94

CCOC(=O)Cn1c(=O)/c(=C\c2ccc3c(c2)C2CCCC2N3Cc2ccccc2)s/c1=C1/SC(=S)N(CC)C1=O (centres unmarked) [(55)]
Resolution ratio R [1]: 0.206
Peak position of M1 macrophage [2]: 2.34
Peak position of M2 macrophage [2]: 1.86
Evaluation of macrophage subtype identification (rated from resolution R): B (the compound is good in the subtype identification (namely, the resolution R is 0.15 or more and less than 0.5))

CCN1c2ccc(/C=C/C=C3/SC(=S)N(CCC(=O)O)C3=O)cc2C2CCCC21 (centres unmarked) [(76)]
Resolution ratio R [1]: 0.283
Peak position of M1 macrophage [2]: 7.77
Peak position of M2 macrophage [2]: 10.5
Evaluation of macrophage subtype identification (rated from resolution R): B (the compound is good in the subtype identification (namely, the resolution R is 0.15 or more and less than 0.5))

CN1/C(=C/C2=C([O-])C(=C/C3=[N+](C)c4ccccc4C3(C)C)/C2=O)C(C)(C)c2ccccc21 [compound (113)]
Resolution ratio R [7]: 0.857
Evaluation of macrophage subtype identification [8]: A (The compound is very good in the subtype identification (namely, the resolution R is 0.5 or more))
Peak position of M1 macrophage [9]: 9.05
Peak position of M2 macrophage [10]: 21.39
subtype more strongly stained: the M2 macrophage shows a higher fluorescence intensity in the APC-Cy7 channel than the M1 macrophage; also recorded: the M2 macrophages are more strongly stained than the M1 macrophages

CCCN1c2ccc(/C=C3/SC(=S)N(CCC(=O)O)C3=O)cc2C2CCCC21 (centres unmarked) [(9)]
Resolution ratio R [1]: 0.828
Peak position of M1 macrophage [2]: 2.63
Peak position of M2 macrophage [2]: 6.69
Evaluation of macrophage subtype identification (rated from resolution R): A (The compound is very good in the subtype identification (namely, the resolution R is 0.5 or more))

N#C/C(=C\C=C\c1ccc2c(c1)C1CCCC1N2c1ccc(C=C(c2ccccc2)c2ccccc2)cc1)C(=O)O (centres unmarked) [(74)]
Resolution ratio R [1]: 0.538
Peak position of M1 macrophage [2]: 2.52
Peak position of M2 macrophage [2]: 1.25
Evaluation of macrophage subtype identification (rated from resolution R): A (The compound is very good in the subtype identification (namely, the resolution R is 0.5 or more))
